# PubChem BioAssay AID256 (DTP/NCI, 2004)
# Where “and” joins values, the source holds several entries; their conditions need not be identical. Identical values can stand only once. Inconclusive results and toxic doses are left out.
# Tested on: CD2F1 mice, L1210 leukemia ip, survival T/C
# Experiment: NCI In Vivo Anticancer Drug Screen. Data for tumor model L1210 Leukemia (intraperitoneal) in CD2F1 (CDF1) mice
# Details: higher = longer survival
# Summary of the method: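 Ratio T/C, where T is the treated-group value and C the vehicle-dosed control value, from mice implanted with a transplantable tumor.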
# [1] = endpoint: mean survival time, dose: 100.0 mg/kg/injection, schedule: Q04DX003 (ip), vehicle: saline with Tween-80
# [2] = endpoint: mean survival time, dose: 200.0 mg/kg/injection, schedule: Q04DX003 (ip), vehicle: saline with Tween-80
# [3] = endpoint: mean survival time, dose: 400.0 mg/kg/injection, schedule: Q04DX003 (ip), vehicle: saline with Tween-80
# [4] = endpoint: mean survival time, dose: 100.0 mg/kg/injection, schedule: Q01DX001 (ip), vehicle: saline
# [5] = endpoint: mean survival time, dose: 200.0 mg/kg/injection, schedule: Q01DX001 (ip), vehicle: saline
# [6] = endpoint: mean survival time, dose: 400.0 mg/kg/injection, schedule: Q01DX001 (ip), vehicle: saline
# [7] = endpoint: mean survival time, dose: 100.0 mg/kg/injection, schedule: Q01DX001 (ip), vehicle: saline with Tween-80
# [8] = endpoint: mean survival time, dose: 200.0 mg/kg/injection, schedule: Q01DX001 (ip), vehicle: saline with Tween-80
# [9] = endpoint: mean survival time, dose: 400.0 mg/kg/injection, schedule: Q01DX001 (ip), vehicle: saline with Tween-80
# [10] = endpoint: mean survival time, dose: 200.0 mg/kg/injection, schedule: Q01DX009 (ip), vehicle: saline
# [11] = endpoint: mean survival time, dose: 50.0 mg/kg/injection, schedule: Q01DX009 (ip), vehicle: saline with Tween-80
# [12] = endpoint: mean survival time, dose: 100.0 mg/kg/injection, schedule: Q01DX009 (ip), vehicle: saline with Tween-80
# [13] = endpoint: mean survival time, dose: 200.0 mg/kg/injection, schedule: Q01DX009 (ip), vehicle: saline with Tween-80
# [14] = endpoint: mean survival time, dose: 400.0 mg/kg/injection, schedule: Q01DX009 (ip), vehicle: saline with Tween-80
structure (smiles),measurement,setting,value
COC1=CCC2=C(C1)C1(C)CCCC(C)(CO)C1CC2 (centres undefined),T/C,[1],94 % of control
same,T/C,[2],92 % of control
same,T/C,[3],97 % of control
NC(Cc1c[nH]c2ccc(N(CCCl)CCCl)cc12)C(=O)O (centres undefined),T/C,"endpoint: mean survival time, dose: 0.5 mg/kg/injection, schedule: Q01DX010 (ip), vehicle: saline",150 % of control
same,T/C,"endpoint: mean survival time, dose: 1.0 mg/kg/injection, schedule: Q01DX010 (ip), vehicle: saline",160 % of control
same,T/C,"endpoint: mean survival time, dose: 2.0 mg/kg/injection, schedule: Q01DX010 (ip), vehicle: saline",208 % of control
COc1cc(/C=N\O)nc(-c2ccccn2)c1,T/C,[4],107 % of control
same,T/C,[5],98 % of control
same,T/C,[6],97 % of control
Sc1ccc(Cl)cc1,T/C,[7],98 % of control
same,T/C,[8],98 % of control
same,T/C,[9],102 % of control
Cc1ccc(SSc2ccc(C)cc2)cc1,T/C,[4],100 % of control
same,T/C,[5],100 % of control
same,T/C,[6],91 % of control
CCN(CC)C(=O)C(Cc1ccc(OC)c(OC)c1)C(Cc1ccc(OC)c(OC)c1)C(=O)O (centres undefined),T/C,"endpoint: mean survival time, dose: 100.0 mg/kg/injection, schedule: Q01DX009 (ip), vehicle: other",98 % of control
same,T/C,"endpoint: mean survival time, dose: 200.0 mg/kg/injection, schedule: Q01DX009 (ip), vehicle: other",98 % of control
same,T/C,"endpoint: mean survival time, dose: 400.0 mg/kg/injection, schedule: Q01DX009 (ip), vehicle: other",95 % of control
O=C(Nc1ccccc1)OCCCl,T/C,[1],100 % of control
same,T/C,[2],97 % of control
same,T/C,[3],100 % of control
O=Cc1c2c(cc3ccccc13)Nc1ccccc1N2,T/C,"endpoint: mean survival time, dose: 100.0 mg/kg/injection, schedule: Q04DX002 (ip), vehicle: saline + alcohol",89 % of control
same,T/C,"endpoint: mean survival time, dose: 200.0 mg/kg/injection, schedule: Q04DX002 (ip), vehicle: saline + alcohol",89 % of control
same,T/C,"endpoint: mean survival time, dose: 400.0 mg/kg/injection, schedule: Q04DX002 (ip), vehicle: saline + alcohol",86 % of control
NCCc1ccc(O)c(O)c1,T/C,"endpoint: mean survival time, dose: 25.0 mg/kg/injection, schedule: Q01DX009 (ip), vehicle: saline",97 % of control
same,T/C,"endpoint: mean survival time, dose: 50.0 mg/kg/injection, schedule: Q01DX009 (ip), vehicle: saline",109 % of control
same,T/C,"endpoint: mean survival time, dose: 100.0 mg/kg/injection, schedule: Q01DX009 (ip), vehicle: saline",122 % of control and 109 % of control
same,T/C,[10],112 % of control
same,T/C,"endpoint: mean survival time, dose: 400.0 mg/kg/injection, schedule: Q01DX009 (ip), vehicle: saline",119 % of control
same,T/C,"endpoint: median survival time, dose: 0.1 mg/kg/injection, schedule: Q01DX009 (ip), vehicle: saline",98 % of control and 107 % of control
same,T/C,"endpoint: median survival time, dose: 0.5 mg/kg/injection, schedule: Q01DX009 (ip), vehicle: saline",101 % of control and 107 % of control
same,T/C,"endpoint: median survival time, dose: 1.0 mg/kg/injection, schedule: Q01DX009 (ip), vehicle: saline",101 % of control and 107 % of control
same,T/C,"endpoint: median survival time, dose: 10.0 mg/kg/injection, schedule: Q01DX009 (ip), vehicle: saline",97 % of control
same,T/C,"endpoint: median survival time, dose: 25.0 mg/kg/injection, schedule: Q01DX020 (ip), vehicle: saline",101 % of control
same,T/C,"endpoint: median survival time, dose: 50.0 mg/kg/injection, schedule: Q01DX020 (ip), vehicle: saline",109 % of control
same,T/C,"endpoint: median survival time, dose: 50.0 mg/kg/injection, schedule: Q04DX002 (ip), vehicle: saline with Tween-80",111 % of control
same,T/C,"endpoint: median survival time, dose: 100.0 mg/kg/injection, schedule: Q01DX009 (ip), vehicle: saline",113 % of control and 117 % of control
same,T/C,"endpoint: median survival time, dose: 100.0 mg/kg/injection, schedule: Q01DX020 (ip), vehicle: saline",115 % of control
same,T/C,"endpoint: median survival time, dose: 100.0 mg/kg/injection, schedule: Q04DX002 (ip), vehicle: saline with Tween-80",111 % of control
same,T/C,"endpoint: median survival time, dose: 150.0 mg/kg/injection, schedule: Q01DX009 (ip), vehicle: saline",114 % of control
same,T/C,"endpoint: median survival time, dose: 200.0 mg/kg/injection, schedule: Q01DX020 (ip), vehicle: saline",115 % of control
same,T/C,"endpoint: median survival time, dose: 200.0 mg/kg/injection, schedule: Q04DX002 (ip), vehicle: saline with Tween-80",100 % of control
same,T/C,"endpoint: median survival time, dose: 400.0 mg/kg/injection, schedule: Q01DX020 (ip), vehicle: saline",118 % of control
same,T/C,"endpoint: median survival time, dose: 400.0 mg/kg/injection, schedule: Q04DX002 (ip), vehicle: saline with Tween-80",100 % of control
same,T/C,"endpoint: median survival time, dose: 800.0 mg/kg/injection, schedule: Q01DX020 (ip), vehicle: saline",118 % of control
O=C(O)C1CCCC[N-]1.[Cl][Pd][Cl] (centres undefined),T/C,"endpoint: mean survival time, dose: 12.5 mg/kg/injection, schedule: Q01DX001 (ip), vehicle: saline",95 % of control
same,T/C,"endpoint: mean survival time, dose: 25.0 mg/kg/injection, schedule: Q01DX001 (ip), vehicle: saline",108 % of control
same,T/C,"endpoint: mean survival time, dose: 50.0 mg/kg/injection, schedule: Q01DX001 (ip), vehicle: saline",98 % of control
same,T/C,[4],104 % of control
same,T/C,[5],109 % of control
COc1cc(OC)c(NC(=O)Oc2ccc(C(C)(C)C)cc2Br)cc1Cl,T/C,"endpoint: mean survival time, dose: 12.5 mg/kg/injection, schedule: Q01DX009 (ip), vehicle: saline with Tween-80",97 % of control
same,T/C,"endpoint: mean survival time, dose: 25.0 mg/kg/injection, schedule: Q01DX009 (ip), vehicle: saline with Tween-80",102 % of control
same,T/C,[11],94 % of control
same,T/C,[12],93 % of control
same,T/C,[13],86 % of control
C=C(C)C1CCC2(C(=O)OC)CCC3(C)C(CCC4C5(C)CCC(OC6CCCCO6)C(C)(C)C5CCC43C)C12 (centres undefined),T/C,"endpoint: mean survival time, dose: 6.25 mg/kg/injection, schedule: Q04DX002 (ip), vehicle: saline with Tween-80",103 % of control
same,T/C,"endpoint: mean survival time, dose: 12.5 mg/kg/injection, schedule: Q04DX002 (ip), vehicle: saline with Tween-80",95 % of control
same,T/C,"endpoint: mean survival time, dose: 25.0 mg/kg/injection, schedule: Q04DX002 (ip), vehicle: saline with Tween-80",86 % of control
CNC(=O)OCc1nc(SC)n(C)c1COC(=O)NC,T/C,"endpoint: median survival time, dose: 12.5 mg/kg/injection, schedule: Q01DX005 (ip), vehicle: saline",103 % of control
same,T/C,"endpoint: median survival time, dose: 12.5 mg/kg/injection, schedule: Q01DX005 (ip), vehicle: suspension in saline",111 % of control
same,T/C,"endpoint: median survival time, dose: 25.0 mg/kg/injection, schedule: Q01DX005 (ip), vehicle: saline",111 % of control
same,T/C,"endpoint: median survival time, dose: 25.0 mg/kg/injection, schedule: Q01DX005 (ip), vehicle: suspension in saline",114 % of control
same,T/C,"endpoint: median survival time, dose: 65.0 mg/kg/injection, schedule: Q01DX005 (ip), vehicle: saline",175 % of control
same,T/C,"endpoint: median survival time, dose: 200.0 mg/kg/injection, schedule: Q01DX005 (ip), vehicle: suspension in saline",87 % of control
CC(=O)Nc1ccc(/C=N/NC(=O)CNC(=O)Nc2cccc(C(F)(F)F)c2)cc1,T/C,[11],88 % of control
same,T/C,[12],88 % of control
same,T/C,[13],92 % of control
O=C1CCCCCC2CC12 (centres undefined),T/C,[12],94 % of control
same,T/C,[13],102 % of control
same,T/C,[14],94 % of control
CC([NH-])CC(C)[NH-].[Br][Pt+2][Br] (centres undefined),T/C,"endpoint: mean survival time, dose: 3.12 mg/kg/injection, schedule: Q04DX003 (ip), vehicle: saline with Tween-80",120 % of control and 124 % of control
same,T/C,"endpoint: mean survival time, dose: 12.5 mg/kg/injection, schedule: Q04DX003 (ip), vehicle: saline with Tween-80",150 % of control
COC(=O)c1ccccc1Nc1c2ccc(Cl)cc2nc2c1c(C)nn2C,T/C,[12],96 % of control
same,T/C,[1],101 % of control
same,T/C,[13],100 % of control
same,T/C,[2],95 % of control
same,T/C,[14],97 % of control
same,T/C,[3],106 % of control
Cc1ccc(S(=O)(=O)N/N=C/c2ccc(Cl)s2)cc1,T/C,[7],94 % of control
same,T/C,[8],97 % of control
same,T/C,[9],97 % of control
O=P1(C(Cl)Cl)OCCCCO1,T/C,[4],102 % of control
same,T/C,[5],102 % of control
same,T/C,[6],105 % of control
CC(=O)CC(=O)c1ccc(C(=O)CC(C)=O)cc1.[Fe],T/C,[1],96 % of control
same,T/C,[2],89 % of control
same,T/C,[3],104 % of control
COC(=O)C1(N)CCCC1,T/C,"endpoint: mean survival time, dose: 25.0 mg/kg/injection, schedule: Q04DX003 (ip), vehicle: saline",101 % of control
same,T/C,"endpoint: mean survival time, dose: 50.0 mg/kg/injection, schedule: Q04DX003 (ip), vehicle: saline",100 % of control
same,T/C,[1],105 % of control
same,T/C,"endpoint: mean survival time, dose: 100.0 mg/kg/injection, schedule: Q04DX003 (ip), vehicle: saline",113 % of control
same,T/C,[10],121 % of control
same,T/C,[2],122 % of control
CCCCCCCCCCNC1=C(Cl)C(=O)c2ccccc2C1=O,T/C,"endpoint: mean survival time, dose: 25.0 mg/kg/injection, schedule: Q04DX003 (ip), vehicle: saline with Tween-80",98 % of control
same,T/C,"endpoint: mean survival time, dose: 50.0 mg/kg/injection, schedule: Q04DX003 (ip), vehicle: saline with Tween-80",94 % of control
same,T/C,[1],95 % of control
CC(C)CCCC(C)C1C(O)CC2C3CCC4CC(O)CCC4(C)C3CCC21C (centres undefined),T/C,"endpoint: mean survival time, dose: 25.0 mg/kg/injection, schedule: Q01DX001 (ip), vehicle: saline with Tween-80",103 % of control
same,T/C,"endpoint: mean survival time, dose: 50.0 mg/kg/injection, schedule: Q01DX001 (ip), vehicle: saline with Tween-80",95 % of control
same,T/C,[7],97 % of control
